This is an account of results in article PMC10377753, “Pharmacokinetic and pharmacodynamic properties of polymyxin B in Escherichia coli and Klebsiella pneumoniae murine infection models” (Journal of Antimicrobial Chemotherapy, 2023).

One data set has as its system plasma proteins. The note with it: mouse, spiked pooled plasma, ultracentrifugation; cited from earlier work. An excerpt: Protein binding of polymyxin B is known to be high. However, a difference was found between the current study (unbound fraction 20%) compared with previous studies (8.6% for polymyxin B,[8] 8.4% for colistin[5]), which affects the PTA. In the present study, ultrafiltration was used for determining the unbound fraction, whilst ultracentrifugation was used in the other studies. With the ultrafiltration method, correction for the NSB to the ultrafiltration membranes was needed. In addition, differences in mouse plasma used for determination of polymyxin B protein binding may (partly) explain the ...

For a further data set, the system named is K. pneumoniae isolates. In words: Dose-response study, thigh infection model, summary over K. pneumoniae isolates. In kind it is in vivo, Klebsiella pneumoniae. The note with it: mouse thigh infection. As to the method: Experiments were carried out in the Erasmus Laboratory Animal Science Centre in Rotterdam, The Netherlands in accordance with the EU Animal Directive 2010/63/EU 2010 directive[14] (licence number AVD101002016702) as described before,[15] with approval of the institutional Animal Welfare Body. Outbred female CD-1 mice obtained from Charles River Germany, weighing 20–25 g, 7–8 weeks old, were used in the experiments. The mice were housed under standard conditions with drink and feed supplied ad libitum.
Mice were rendered neutropenic by intraperitoneal injection of cyclophosphamide of 150 and 100 mg/kg, 4 days and 1 day before infection, respectively. On the day of infection, an overnight culture of the bacteria was diluted in fresh CAMHB and incubated at 37°C for 1 or 2 h depending on the growth rate of the strain. After incubation the inoculum was diluted in CAMHB or saline for the thigh and lung infection model, respectively, in order to obtain approximately 5.0 × 10^7 cfu/mL. Mice were then infected intramuscularly in each thigh (thigh infection model) or intranasally under isoflurane anaesthesia (lung infection model), with 0.05 mL of inoculum containing approximately 2.5 × 10^6 bacteria. Analgesia was given in the form of buprenorphine directly after infection, every 12 h.
For dose–response studies, a 6 hourly dosing regimen of 1–32 mg/kg was studied in the thigh infection model. Mice were infected with E. coli […], 15, 51 or 71 or K. pneumoniae ATCC 43816, 17, 58 or 74.
Animals were humanely euthanized 24 h (t = 24 h) after the first dose, unless the welfare of the animals necessitated earlier termination, following animal welfare regulations. Excised thighs were transferred to a pre-cooled 14 mL polypropylene tube containing 2 mL of PBS and were homogenized using a T25 ULTRA-TURRAX (IKA-Werke GmbH & Co, Staufen, Germany). A 10-fold dilution series was prepared and 3 × 10 μL was plated per dilution. The following day, colonies were counted and the number of cfu per thigh was calculated.
The drug effect was determined by the difference between the log10 cfu values at t = 0 h (mean value of two mice) and t = 24 h (value of individual mice) expressed as Δlog10 cfu. The fAUC/MIC, fCmax/MIC and %fT>MIC were determined based on the simulated time–concentration profiles over 24 h as derived in MicLab 2.71 (MEDIMATICS, Maastricht, The Netherlands) using 200 points per dosing interval.
A sigmoid maximum effect (Emax) model was fitted to the PK/PD index versus Δlog10 cfu data by non-linear regression, and static or a 1 log or 2 log kill effect were determined using GraphPad Prism 8.0 (GraphPad, Inc., San Diego, CA, USA). […]

The next data set relates to gram-negative pathogens. The note with it: previous studies; cited from earlier work. As to the method:
To determine whether these targets are achieved in humans, the PTAs for the 200 mg q24h dose were calculated. It is clear that the degree of protein binding is essential herein and more clarity on the protein binding in human plasma is needed before an optimal dosing regimen can be recommended, since for a highly protein-bound drug a small error on the fu would yield important PTA differences.

SMILES strings stand for the structures. Counter-ions that a name gives are not always drawn. Bridge positions count the residues as written; N and C are the ends. Square brackets hold non-standard residues; d marks the D form. Peptide text beside a SMILES is read from it. * marks the point of attachment. X1 = CC[C@H](C)CCCCC(=O)*; Dab = NCC[C@H](N)C(=O)O

One may read the MIC90 as the lowest concentration that inhibits either 90% of growth or 90% of the strains tested, depending on the study. With `CC[C@H](C)CCCCC(=O)N[C@@H](CCN)C(=O)N[C@H](C(=O)N[C@@H](CCN)C(=O)N[C@H]1CCNC(=O)[C@H]([C@@H](C)O)NC(=O)[C@H](CCN)NC(=O)[C@H](CCN)NC(=O)[C@H](CC(C)C)NC(=O)[C@@H](Cc2ccccc2)NC(=O)[C@H](CCN)NC1=O)[C@@H](C)O` [polymyxin B, Polymyxin B sulphate salt] (X1-[Dab]T[Dab][Dab][Dab][dF]L[Dab][Dab]T; lactam 4-C), the Unbound fraction with plasma proteins is given as 8.6%. Further, in the data set with K. pneumoniae isolates (K. pneumoniae isolates), the “Isolates in which 1 log kill was found” value was 1/4. The “Target value of fAUC/MIC, static effect, average” value in the data set on K. pneumoniae isolates (average of four K. pneumoniae isolates, q6h) was determined as 22.4. In the data set on K. pneumoniae isolates (median of four K. pneumoniae isolates, q6h), the “Target value of fAUC/MIC, static effect, median” value was determined as 11.6. Also, the “Target value of fAUC/MIC, static effect, range” value in the data set with K. pneumoniae isolates (range over four K. pneumoniae isolates, q6h) is reported as 5.9–60.5. The MIC90 with gram-negative pathogens is 0.5 to 1 µg/mL.
